Measured values from PubChem BioAssay AID2060614 (Molecular Pharmacology Branch, DTP, NCI, 2025).
Several values for one entry are separate records, joined by “and”; a condition that tells them apart may be missing. Identical values can stand only once.

Test system: 598228-144-R-J1-PDC complex spheroids, viability
Experiment: Anticancer human tumor 598228-144-R-J1-PDC patient-derived serous endometrial adenocarcinoma cell line growth inhibition [CLK]
Details: for viability, T/C: stronger effect = lower value
Text: A high-throughput screen of multi-cell type tumor spheroids was designed to identify active combinations of […] and targeted small molecules. Complex spheroids include a stromal component modeled by human endothelial cells (HUVEC) and fibroblasts modeled by human mesenchymal stem cells (MSCs). The concentration ranges selected for each drug and investigational agent were based upon clinically achievable concentrations if the clinical Cmax of the agent was known.
Compounds. The drugs and investigational agents: cirtuvivint (SM08502; NSC835563), CC-671 (NSC850746), vemurafenib (NSC761431), tapotoclax (NSC804041), sotorasib (NSC818433), adagrasib (NSC831453), MRTX-1133 (NSC836407), BAY2416964 (NSC825713), copanlisib (NSC816437), inavolisib (NSC800729), abemaciclib (NSC768073), osimertinib (NSC779217), entinostat (NSC756642), eltanexor (KPT-8602, NSC794443), venetoclax (NSC766270), ceralasertib (NSC777638), bortezomib (NSC756655), olaparib (NSC753686), talazoparib (NSC767125), alisertib (NSC759677), peposertib (NSC802822), gemcitabine (NSC613327), 5-fluorouracil (NSC19893), SN-38 (NSC673596), oxaliplatin (NSC266046), paclitaxel (NSC125973), and doxorubicin (NSC123127), were obtained from the National Cancer Institute (NCI) Developmental Therapeutics Program Chemical Repository. The FDA-approved anticancer drug set is available from the Developmental Therapeutics Program at https://dtp.cancer.gov/organization/dscb/obtaining/available plates.htm. […] The stock solutions were prepared in dimethyl sulfoxide (DMSO, Sigma-Aldrich, St. Louis, MO, cat. D2650), except for the platinum complexes which were prepared in saline (Quality Biological, Gaithersburg, MD, cat. 114-055-101), at 800-fold the tested concentration and stored at -70 degrees C prior to their use. All drugs and investigational agents were tested over a range starting from a high concentration at or near the clinical Cmax and decreasing in half-log increments. If the clinical Cmax for an agent had not been determined, the highest concentration tested was 10 microM.
Cell Culture. All cells were maintained in an incubator at 37 degrees C and 5% CO2 with 95% humidity. The PDC lines were cultured according to standard operating procedures established by the NCI PDMR. Briefly, all PDCs were thawed and cultured in Matrigel-coated flasks prepared with a working solution of 1X Ham's F-12 nutrient mix, without supplementation (Invitrogen, Waltham, MA, cat. 11765054), 100 U/mL penicillin-streptomycin (Invitrogen, cat. 15140122), and 2.5% Matrigel (Corning Inc., Corning, NY, cat. 354248) for the first three passages. The 947758-054-R-J2-PDC line was cultured in 6B/Colon 1A media, which includes advanced DMEM/F-12 (Thermo Fisher Scientific, cat. 12634028), 10 mM HEPES (Thermo Fisher Scientific, cat. 15630080), 1X GlutaMAX supplement (Thermo Fisher Scientific, cat. 35050061), 0.1 mg/mL primocin (InvivoGen, cat. ant-pm-2), 10% defined fetal bovine serum, heat inactivated (HyClone Laboratories Inc., cat. SH30070.03HI), 1.25 mM N-Acetyl-L-cysteine (Sigma-Aldrich, cat. A9165), 10 mM nicotinamide (Sigma-Aldrich, cat. N0636), 1X B-27 supplement (Thermo Fisher Scientific, cat. 17504044), 1X N-2 supplement (Thermo Fisher Scientific, cat. 17502048), and 10 microM Y-27632 dihydrochloride (Tocris Bioscience, cat. 1254). The 876862-298-R-J1-PDC was cultured in 6E media, which includes all 6B/Colon 1A media components plus 50% L-WRN conditioned media (ATCC, cat. CRL-3276), 50 ng/mL recombinant human EGF recombinant protein (hEGF; Thermo Fisher Scientific, cat. PHG0311), 10 ng/mL recombinant human fibroblast growth factor 10 (hGFG-10; PeproTech, cat. 100-26), 1 ng/mL recombinant human fibroblast growth factor 2 (hFGF-2; PeproTech, cat. 100-18B), and 1 µM prostaglandin E2 (PGE2; Tocris, cat. 2296). The 227483-062-R1-J1-PDC line was cultured in Panc media, containing all 6E components except hFGF-2, with the addition of 500 nM SB-431542 (Selleckchem, cat. S1067) and 10 nM gastrin (Tocris, cat. 3006). […]

[1] = curve of first compound, second compound 0.0316 µM
[2] = curve of first compound, second compound 0.1 µM
[3] = curve of first compound, second compound 0.316 µM
[4] = curve of first compound, second compound 1 µM
[5] = curve of first compound, second compound 3.16 µM
[6] = curve of first compound, second compound 10 µM
[7] = second compound 0.0316 µM, first compound 0.0316 µM
[8] = second compound 0.0316 µM, first compound 0.1 µM
[9] = second compound 0.0316 µM, first compound 0.316 µM
[10] = second compound 0.0316 µM, first compound 1 µM
[11] = second compound 0.0316 µM, first compound 3.16 µM
[12] = second compound 0.0316 µM, first compound 10 µM
[13] = second compound 0.1 µM, first compound 0.0316 µM
[14] = second compound 0.1 µM, first compound 0.1 µM
[15] = second compound 0.1 µM, first compound 0.316 µM
[16] = second compound 0.1 µM, first compound 1 µM
[17] = second compound 0.1 µM, first compound 3.16 µM
[18] = second compound 0.1 µM, first compound 10 µM
[19] = second compound 0.316 µM, first compound 0.0316 µM
[20] = second compound 0.316 µM, first compound 0.1 µM
[21] = second compound 0.316 µM, first compound 0.316 µM
[22] = second compound 0.316 µM, first compound 1 µM
[23] = second compound 0.316 µM, first compound 3.16 µM
[24] = second compound 0.316 µM, first compound 10 µM
[25] = second compound 1 µM, first compound 0.0316 µM
[26] = second compound 1 µM, first compound 0.1 µM
[27] = second compound 1 µM, first compound 0.316 µM
[28] = second compound 1 µM, first compound 1 µM
[29] = second compound 1 µM, first compound 3.16 µM
[30] = second compound 1 µM, first compound 10 µM
[31] = second compound 3.16 µM, first compound 0.0316 µM
[32] = second compound 3.16 µM, first compound 0.1 µM
[33] = second compound 3.16 µM, first compound 0.316 µM
[34] = second compound 3.16 µM, first compound 1 µM
[35] = second compound 3.16 µM, first compound 3.16 µM
[36] = second compound 3.16 µM, first compound 10 µM
[37] = second compound 10 µM, first compound 0.0316 µM
[38] = second compound 10 µM, first compound 0.1 µM
[39] = second compound 10 µM, first compound 0.316 µM
[40] = second compound 10 µM, first compound 1 µM
[41] = second compound 10 µM, first compound 3.16 µM
[42] = second compound 10 µM, first compound 10 µM
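Note: spheroids exposed to compounds for seven days before readout.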
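Throughout, for viability, T/C: 100% = DMSO vehicle control wells.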

C=CC(=O)N1CCN(c2nc(=O)n(-c3c(C)ccnc3C(C)C)c3nc(-c4c(O)cccc4F)c(F)cc23)C(C)C1 (stereo unspecified) + CNC(=O)c1ccc(Nc2nc(OC3CCCC3)c3c(-c4ccc5nc(C)oc5c4)c[nH]c3n2)c(OC)c1
IC50 [1]: > 10000 nM
IC50 [2]: > 10000 nM
IC50 [3]: > 10000 nM
IC50 [4]: > 10000 nM
IC50 [5]: > 10000 nM
IC50 [6]: > 10000 nM
viability, T/C [7]: 97.9%
viability, T/C [8]: 110%
viability, T/C [9]: 101%
viability, T/C [10]: 123%
viability, T/C [11]: 135%
viability, T/C [12]: 111%
viability, T/C [13]: 100%
viability, T/C [14]: 111%
viability, T/C [15]: 117%
viability, T/C [16]: 114%
viability, T/C [17]: 127%
viability, T/C [18]: 118%
viability, T/C [19]: 120%
viability, T/C [20]: 100%
viability, T/C [21]: 110%
viability, T/C [22]: 127%
viability, T/C [23]: 120%
viability, T/C [24]: 111%
viability, T/C [25]: 102%
viability, T/C [26]: 96.7%
viability, T/C [27]: 109%
viability, T/C [28]: 137%
viability, T/C [29]: 117%
viability, T/C [30]: 99.3%
viability, T/C [31]: 99.8%
viability, T/C [32]: 86.1%
viability, T/C [33]: 97.5%
viability, T/C [34]: 109%
viability, T/C [35]: 116%
viability, T/C [36]: 85.3%
viability, T/C [37]: 87.6%
viability, T/C [38]: 88.7%
viability, T/C [39]: 96.4%
viability, T/C [40]: 104%
viability, T/C [41]: 101%
viability, T/C [42]: 77.3%

CC(Nc1ccc2c(c1)OCCn1cc(N3C(=O)OCC3C(F)F)nc1-2)C(N)=O (stereo unspecified) + CN1CCN(c2cc(C(=O)Nc3cc4cc(-c5cnn(C)c5)ccc4cn3)ccn2)CC1
IC50 [1]: 885 nM
IC50 [2]: 271 nM
IC50 [3]: < 31.6 nM
IC50 [4]: < 31.6 nM
IC50 [5]: < 31.6 nM
IC50 [6]: < 31.6 nM
viability, T/C [7]: 97.7%
viability, T/C [8]: 66.2%
viability, T/C [9]: 67%
viability, T/C [10]: 47.1%
viability, T/C [11]: 40.3%
viability, T/C [12]: 24.4%
viability, T/C [13]: 87.9%
viability, T/C [14]: 64.3%
viability, T/C [15]: 44.9%
viability, T/C [16]: 38.6%
viability, T/C [17]: 26.5%
viability, T/C [18]: 18.3%
viability, T/C [19]: 12.3%
viability, T/C [20]: 9.13%
viability, T/C [21]: 10.7%
viability, T/C [22]: 6.85%
viability, T/C [23]: 4.58%
viability, T/C [24]: 7.75%
viability, T/C [25]: 1.13%
viability, T/C [26]: 0.87%
viability, T/C [27]: 2.39%
viability, T/C [28]: 0.6%
viability, T/C [29]: 0.73%
viability, T/C [30]: 0.42%
viability, T/C [31]: 1.56%
viability, T/C [32]: 1.01%
viability, T/C [33]: 0.62%
viability, T/C [34]: 0.69%
viability, T/C [35]: 1.66%
viability, T/C [36]: 1.62%
viability, T/C [37]: 0.62%
viability, T/C [38]: 0.46%
viability, T/C [39]: 1.49%
viability, T/C [40]: 0.44%
viability, T/C [41]: 4.05%
viability, T/C [42]: 2.58%

O=c1[nH]cc(F)c(=O)[nH]1
viability, T/C (compound 0.0316 µM): 106% and 89.1%
viability, T/C (compound 0.1 µM): 94.6% and 96.1%
viability, T/C (compound 0.316 µM): 101% and 88.6%
viability, T/C (compound 1 µM): 97.6% and 99.6%
viability, T/C (compound 3.16 µM): 99.3% and 88.9%
viability, T/C (compound 10 µM): 74.2% and 77.3%
IC50 (curve of compound): > 10000 nM
